The values that follow come from publication PMC4891657, “Orexin 2 Receptor Antagonism is Sufficient to Promote NREM and REM Sleep from Mouse to Man” (Scientific Reports, 2016).

For assay [1], the target named is T1, OX2R (Rattus norvegicus, UniProt P56719).
T1 construct: expressed in transfected cells; host or cells: CHO-K1
T1 sequence (P56719 1-460): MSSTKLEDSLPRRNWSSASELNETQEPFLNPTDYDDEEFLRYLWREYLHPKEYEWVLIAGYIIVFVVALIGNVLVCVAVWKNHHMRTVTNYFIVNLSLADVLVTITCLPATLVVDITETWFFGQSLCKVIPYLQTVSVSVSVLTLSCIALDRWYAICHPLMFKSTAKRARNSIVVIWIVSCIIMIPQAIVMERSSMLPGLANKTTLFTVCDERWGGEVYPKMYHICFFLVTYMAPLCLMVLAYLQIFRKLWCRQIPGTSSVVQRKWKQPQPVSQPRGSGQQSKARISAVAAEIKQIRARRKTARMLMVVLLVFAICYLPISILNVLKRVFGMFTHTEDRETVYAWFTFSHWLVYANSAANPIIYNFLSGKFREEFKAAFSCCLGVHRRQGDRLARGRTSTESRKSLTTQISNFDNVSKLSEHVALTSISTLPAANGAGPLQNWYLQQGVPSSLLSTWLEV
The experiment in a line: Radio-ligand displacement binding, CHO-K1 membranes, rat OX2R. Particulars: for fold OX2R selectivity (Ki): OX1R Ki / OX2R Ki; for Ki: read-out: OX2R affinity (Ki). As to the method:
(§1) MK-1064 was evaluated for its ability to inhibit orexin-peptide-A-induced calcium mobilization in CHO cell lines separately expressing OX1R and OX2R from mice, rats, rabbits, dogs, rhesus monkeys and humans.
(§2) Binding and functional blockade of OX1R and OX2R with MK-1064 relative to other 2-SORAs and the DORA, MK-6096, were assessed using membranes from Chinese hamster ovary (CHO)-K1 cells (American Type Tissue Collection, Manassas, VA) transfected to express human, mouse, rat, rabbit, dog, or rhesus monkey OX1R or OX2R receptors, as described previously. The kinetics of binding to human OX2R was assessed by radioligand displacement on CHO-K1 cells expressing the receptor. […] The ON rate analysis was performed by presoaking GF/B filters in 0.3% polyethyleneimine (Sigma) using a Skatron 12-well cell harvester and cold buffer at the indicated time points after addition. For OFF rate determination, binding reactions were allowed to proceed to equilibrium and terminated with 1000x [Kd] of unlabeled antagonist and filtered as above at pre-determined time points. Ultima Gold^TM (PerkinElmer 6013327) scintillation cocktail was added to each filter disc and counted on a PerkinElmer TriCarb 2910 scintillation counter. Data were analyzed using GraphPad® Prism v 6.04 (San Diego, CA, USA). The KON rate was determined according to the equation, KON = (KOBS − KOFF)/[ligand].

Assay [2] has as its target T2, OX1R (Rattus norvegicus, UniProt P56718).
T2 construct: expressed in transfected cells; host or cells: CHO-K1
T2 sequence (P56718 1-416): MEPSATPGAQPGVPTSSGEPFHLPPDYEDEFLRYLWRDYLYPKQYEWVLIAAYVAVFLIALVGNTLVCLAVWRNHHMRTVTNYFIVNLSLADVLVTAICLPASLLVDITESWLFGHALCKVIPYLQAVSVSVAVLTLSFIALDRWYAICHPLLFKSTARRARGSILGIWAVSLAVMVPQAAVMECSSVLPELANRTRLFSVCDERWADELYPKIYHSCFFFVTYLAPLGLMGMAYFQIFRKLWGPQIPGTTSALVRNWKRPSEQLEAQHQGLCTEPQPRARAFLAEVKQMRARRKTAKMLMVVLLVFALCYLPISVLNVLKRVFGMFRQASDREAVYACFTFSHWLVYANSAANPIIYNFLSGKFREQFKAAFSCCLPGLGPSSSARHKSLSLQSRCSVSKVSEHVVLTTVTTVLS
The experiment in a line: Radio-ligand displacement binding, CHO-K1 membranes, rat OX1R. Conditions: read-out: OX1R affinity (Ki). The method, then: as §1, §2

In assay [3] the target is T3, OX2R (Mus musculus, UniProt P58308).
T3 construct: expressed in transfected cells; host or cells: CHO-K1
T3 sequence (P58308 1-460): T1 sequence (P56719 1-460) with P11S, R193C, R213H, V240I, P269Q, R387H, A424V
Kind of assay: Inhibition of orexin-peptide-A-induced calcium mobilization in CHO cells, mouse OX2R. The format is cell-based. Particulars: for fold OX2R selectivity (Kb): OX1R Kb / OX2R Kb. As to the method:
as §1, §2

Assay [4] addresses T4, OX1R (Canis lupus familiaris, UniProt A0A8I3RSX8).
T4 sequence (A0A8I3RSX8 1-427): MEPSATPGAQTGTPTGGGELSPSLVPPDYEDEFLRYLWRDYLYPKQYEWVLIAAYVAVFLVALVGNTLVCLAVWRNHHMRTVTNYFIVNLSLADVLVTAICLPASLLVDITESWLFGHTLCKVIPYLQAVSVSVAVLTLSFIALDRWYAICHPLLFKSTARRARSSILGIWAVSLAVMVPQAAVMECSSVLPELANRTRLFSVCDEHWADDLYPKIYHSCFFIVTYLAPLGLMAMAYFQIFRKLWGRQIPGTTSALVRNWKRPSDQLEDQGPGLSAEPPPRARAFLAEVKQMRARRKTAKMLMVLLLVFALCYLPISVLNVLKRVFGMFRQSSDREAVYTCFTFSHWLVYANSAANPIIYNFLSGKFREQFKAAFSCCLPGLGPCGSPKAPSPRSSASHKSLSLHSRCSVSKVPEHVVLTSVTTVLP
The experiment in a line: Radio-ligand displacement binding, CHO-K1 membranes, dog OX1R. Particulars: read-out: OX1R affinity (Ki). The method, then:
as §1, §2

The target of assay [5] is T5, OX1R (Mus musculus, UniProt P58307).
T5 construct: expressed in transfected cells; host or cells: CHO-K1
T5 sequence (P58307 1-416): T2 sequence (P56718 1-416) with H116Q, R205H, F221I, G232A, P245R, S383G
Kind of assay: Inhibition of orexin-peptide-A-induced calcium mobilization in CHO cells, mouse OX1R. In kind it is cell-based. As to the method: as §1, §2

Where a chain is given by its changes, count along the chain named.

In the case of `COc1ccc(CNC(=O)c2cc(-c3cc(Cl)cc(Cl)c3)cnc2-c2cccnc2)cc1OC` [2-SORA-18], the “fold OX2R selectivity (Ki)” value on OX2R [1] was “[522] fold”. In addition, the Ki at OX2R [1] stood at 0.18 nM; at OX1R [2], 94 nM; at OX1R [4] it was 86 nM. In addition, the Kb on OX2R [3] was 24 nM; at OX1R [5], 208 nM. In addition, the “fold OX2R selectivity (Kb)” value on OX2R [3] was “[9] fold”.

As to `COc1ccc(CNC(=O)c2cc(-c3cncc(C)c3)ncc2-c2nccs2)nc1OC` [MK-3697], the values for the Ki at OX2R [1], on OX1R [2] and on OX1R [4] were 1.93 nM, 2390 nM and 3100 nM, respectively. Moreover, the Kb came out at 12 nM on OX2R [3] and 27200 nM at OX1R [5].

With `Cc1ccc(-c2ncccn2)c(C(=O)N2C[C@H](COc3ccc(F)cn3)CC[C@H]2C)c1` [MK-6096], on OX2R [1], the “fold OX2R selectivity (Ki)” value is “[11.4] fold”. In addition, the figures for the Ki at OX2R [1], at OX1R [2] and at OX1R [4] were 0.22 nM, 2.5 nM and 2.7 nM, respectively. Further, the Kb was determined as 10 nM on OX2R [3] and 9 nM at OX1R [5]. In addition, the “fold OX2R selectivity (Kb)” value on OX2R [3] is “[0.9] fold”.

On to `COc1ccc(CNC(=O)c2cc(-c3cncc(Cl)c3)cnc2-c2ccccn2)nc1OC` [MK-1064, 5″-chloro-N-[(5,6-dimethoxypyridin-2-yl)methyl]-2,2′:5′, 3″-terpyridine-3′-carbo xamide], for which the “fold OX2R selectivity (Ki)” value at OX2R [1] was “[1288] fold”. The Ki on OX2R [1] stood at 0.83 nM; on OX1R [2] it was 1070 nM; at OX1R [4], 1300 nM. Also, the Kb at OX2R [3] stood at 7 nM; on OX1R [5] it was 10300 nM. At OX2R [3], the “fold OX2R selectivity (Kb)” value is “[1471] fold”.

On to `COc1ccc(CNC(=O)c2cc(-c3cncc(C)c3)ncc2-c2ccccc2)nc1OC` [2-SORA-7], for which the “fold OX2R selectivity (Ki)” value at OX2R [1] was “[11877] fold”. The values for the Ki on OX2R [1], at OX1R [2] and at OX1R [4] were 0.22 nM, 2610 nM and 1800 nM, respectively. The values for the Kb at OX2R [3] and on OX1R [5] were 14 nM and 7950 nM, respectively. In addition, the “fold OX2R selectivity (Kb)” value at OX2R [3] is “[568] fold”.

For orientation: Ki means the dissociation constant of the complex between target and ligand, obtained from inhibition or displacement.
